Source: PubChem BioAssay AID449748 (Broad Institute, 2010)
Results filed as inconclusive are left out.

Tested on: cancer stem cell-like cells viability, luminescence
Experiment: PubChem AID 449748

O=[N+]([O-])c1ccc(Cl)c([N+](=O)[O-])c1
AC50: 4.77 µM
